Test results reported in the kinase profiling compilation of Christmann-Franck et al. (2016).

What was measured:
Assay in all cases: KINOMEscan competition binding
Details in all cases: compound 10.0 µM
RAF1 (human) = RAF1 (human) (UniProt P04049)
SLK (human) = SLK (human) (UniProt Q9H2G2)
AKT1 (human) = AKT1 (human) (UniProt P31749)
ULK3 (human) = ULK3 (human) (UniProt Q6PHR2)
MAP2K3 (human) = MAP2K3 (human) (UniProt P46734)
MAP3K1 (human) = MAP3K1 (human) (UniProt Q13233)
GRK1 (human) = GRK1 (human) (UniProt Q15835)
EPHB6 (human) = EPHB6 (human) (UniProt O15197)
WEE2 (human) = WEE2 (human) (UniProt P0C1S8)
CDK15 (human) = CDK15 (human) (UniProt Q96Q40)
MAP2K6 (human) = MAP2K6 (human) (UniProt P52564)
AKT3 (human) = AKT3 (human) (UniProt Q9Y243)
STK25 (human) = STK25 (human) (UniProt O00506)
SRPK3 (human) = SRPK3 (human) (UniProt Q9UPE1)
MAPK11 (human) = MAPK11 (human) (UniProt Q15759)
EPHA1 (human) = EPHA1 (human) (UniProt P21709)
PDPK1 (human) = PDPK1 (human) (UniProt O15530)
PHKG2 (human) = PHKG2 (human) (UniProt P15735)
PIK3CA (human) = PIK3CA (human) (UniProt P42336)
RPS6KA5 KD2 (human) = RPS6KA5 KD2 (human) (UniProt O75582)
RPS6KA3 KD1 (human) = RPS6KA3 KD1 (human) (UniProt P51812)
MST1R (human) = MST1R (human) (UniProt Q04912)
CDC42BPB (human) = CDC42BPB (human) (UniProt Q9Y5S2)
PRKCQ (human) = PRKCQ (human) (UniProt Q04759)
CDK11B (human) = CDK11B (human) (UniProt P21127)
PIK3C2G (human) = PIK3C2G (human) (UniProt O75747)
DYRK1B (human) = DYRK1B (human) (UniProt Q9Y463)
MAPK8 (human) = MAPK8 (human) (UniProt P45983)
MAPK14 (human) = MAPK14 (human) (UniProt Q16539)
OXSR1 (human) = OXSR1 (human) (UniProt O95747)
PKN1 (human) = PKN1 (human) (UniProt Q16512)
SRPK1 (human) = SRPK1 (human) (UniProt Q96SB4)
PRKX (human) = PRKX (human) (UniProt P51817)
[1] = system: PIK3CA (human), P42336 [E542K]
ACVR1B (human) = ACVR1B (human) (UniProt P36896)
RIPK2 (human) = RIPK2 (human) (UniProt O43353)
MUSK (human) = MUSK (human) (UniProt O15146)
MAPK15 (human) = MAPK15 (human) (UniProt Q8TD08)

Sequence of AKT3 (human) (Q9Y243 whole entry, looked up): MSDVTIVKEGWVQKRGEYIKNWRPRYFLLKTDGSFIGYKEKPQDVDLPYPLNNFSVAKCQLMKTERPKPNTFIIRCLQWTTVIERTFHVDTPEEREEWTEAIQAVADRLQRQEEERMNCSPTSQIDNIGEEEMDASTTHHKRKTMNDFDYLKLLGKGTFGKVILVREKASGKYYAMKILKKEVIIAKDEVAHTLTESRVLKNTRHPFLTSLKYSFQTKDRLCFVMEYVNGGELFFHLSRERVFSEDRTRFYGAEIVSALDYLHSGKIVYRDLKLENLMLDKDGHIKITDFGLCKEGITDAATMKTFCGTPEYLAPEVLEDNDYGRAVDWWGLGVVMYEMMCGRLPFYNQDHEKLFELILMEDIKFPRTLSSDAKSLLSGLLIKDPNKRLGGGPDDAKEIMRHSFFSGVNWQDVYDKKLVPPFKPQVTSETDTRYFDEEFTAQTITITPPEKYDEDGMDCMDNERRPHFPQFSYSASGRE
Sequence of AKT1 (human) (P31749 whole entry, looked up): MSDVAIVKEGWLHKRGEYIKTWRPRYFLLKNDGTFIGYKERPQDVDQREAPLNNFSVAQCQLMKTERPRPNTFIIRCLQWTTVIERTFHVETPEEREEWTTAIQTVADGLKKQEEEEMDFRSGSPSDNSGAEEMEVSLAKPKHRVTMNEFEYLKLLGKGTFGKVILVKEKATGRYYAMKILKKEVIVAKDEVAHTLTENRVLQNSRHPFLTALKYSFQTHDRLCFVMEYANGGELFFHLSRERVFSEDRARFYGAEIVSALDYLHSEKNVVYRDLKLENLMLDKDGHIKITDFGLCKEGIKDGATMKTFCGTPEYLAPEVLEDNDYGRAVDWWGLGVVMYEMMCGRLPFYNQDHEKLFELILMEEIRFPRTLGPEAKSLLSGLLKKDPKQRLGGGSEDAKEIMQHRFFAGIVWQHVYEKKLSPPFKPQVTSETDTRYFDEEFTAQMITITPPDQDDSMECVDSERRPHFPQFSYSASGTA
Sequence of ACVR1B (human) (P36896 whole entry, looked up): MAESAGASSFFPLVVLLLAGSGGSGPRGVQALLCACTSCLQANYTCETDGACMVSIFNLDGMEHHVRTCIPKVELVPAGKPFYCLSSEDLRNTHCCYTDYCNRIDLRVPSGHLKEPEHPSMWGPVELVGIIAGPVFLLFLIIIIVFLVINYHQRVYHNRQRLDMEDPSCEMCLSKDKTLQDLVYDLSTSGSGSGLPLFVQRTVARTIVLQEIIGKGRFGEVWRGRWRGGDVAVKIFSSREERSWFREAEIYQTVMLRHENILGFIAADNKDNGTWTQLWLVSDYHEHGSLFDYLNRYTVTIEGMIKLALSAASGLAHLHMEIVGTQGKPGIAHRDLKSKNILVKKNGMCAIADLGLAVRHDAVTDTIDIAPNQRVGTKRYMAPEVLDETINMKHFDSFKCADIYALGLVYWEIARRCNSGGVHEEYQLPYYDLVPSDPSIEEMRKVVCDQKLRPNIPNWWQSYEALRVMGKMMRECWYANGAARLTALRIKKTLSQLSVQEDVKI
Sequence of STK25 (human) (O00506 whole entry, looked up): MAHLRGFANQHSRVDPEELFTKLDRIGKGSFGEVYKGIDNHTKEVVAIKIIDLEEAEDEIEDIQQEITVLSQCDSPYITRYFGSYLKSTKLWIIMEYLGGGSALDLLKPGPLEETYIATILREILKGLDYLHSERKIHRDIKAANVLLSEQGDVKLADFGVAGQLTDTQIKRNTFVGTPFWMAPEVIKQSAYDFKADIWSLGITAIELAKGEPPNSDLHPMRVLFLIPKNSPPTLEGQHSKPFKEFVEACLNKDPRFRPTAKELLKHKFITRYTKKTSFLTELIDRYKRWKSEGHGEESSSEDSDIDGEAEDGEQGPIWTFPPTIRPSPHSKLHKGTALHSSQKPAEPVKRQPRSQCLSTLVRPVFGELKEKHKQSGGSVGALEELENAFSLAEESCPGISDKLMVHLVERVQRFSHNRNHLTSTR
Sequence of PHKG2 (human) (P15735 whole entry, looked up): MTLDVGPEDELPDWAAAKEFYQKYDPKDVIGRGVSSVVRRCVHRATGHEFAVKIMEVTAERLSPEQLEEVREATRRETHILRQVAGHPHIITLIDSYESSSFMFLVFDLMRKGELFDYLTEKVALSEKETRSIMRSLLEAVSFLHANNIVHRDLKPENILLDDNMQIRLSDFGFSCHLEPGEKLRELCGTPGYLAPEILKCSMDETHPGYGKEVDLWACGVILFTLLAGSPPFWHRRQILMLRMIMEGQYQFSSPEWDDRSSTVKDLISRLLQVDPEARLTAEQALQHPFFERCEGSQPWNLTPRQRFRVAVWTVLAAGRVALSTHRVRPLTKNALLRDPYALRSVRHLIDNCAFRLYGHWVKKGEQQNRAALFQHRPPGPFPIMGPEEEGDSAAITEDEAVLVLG
Sequence of CDK11B (human) (P21127 whole entry, looked up): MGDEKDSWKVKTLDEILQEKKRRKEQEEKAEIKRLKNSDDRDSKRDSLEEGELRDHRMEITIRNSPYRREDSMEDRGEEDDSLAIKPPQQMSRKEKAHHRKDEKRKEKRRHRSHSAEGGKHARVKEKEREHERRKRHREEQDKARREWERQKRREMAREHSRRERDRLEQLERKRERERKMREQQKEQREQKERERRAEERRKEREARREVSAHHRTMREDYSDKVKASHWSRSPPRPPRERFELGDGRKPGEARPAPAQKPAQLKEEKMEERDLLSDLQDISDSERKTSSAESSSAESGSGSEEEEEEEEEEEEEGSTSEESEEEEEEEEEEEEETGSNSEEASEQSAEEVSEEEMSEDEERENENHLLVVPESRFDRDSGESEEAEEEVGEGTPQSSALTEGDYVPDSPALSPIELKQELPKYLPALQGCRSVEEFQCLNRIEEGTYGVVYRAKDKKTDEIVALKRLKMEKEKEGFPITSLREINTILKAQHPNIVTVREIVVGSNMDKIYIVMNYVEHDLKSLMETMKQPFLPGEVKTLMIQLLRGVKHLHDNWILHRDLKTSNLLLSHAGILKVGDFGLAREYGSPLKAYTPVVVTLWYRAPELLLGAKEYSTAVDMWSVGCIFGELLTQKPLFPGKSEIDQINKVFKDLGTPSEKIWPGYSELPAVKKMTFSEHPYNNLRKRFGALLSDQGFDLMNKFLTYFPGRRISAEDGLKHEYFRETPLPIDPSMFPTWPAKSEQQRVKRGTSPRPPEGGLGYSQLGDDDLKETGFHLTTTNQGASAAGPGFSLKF
Sequence of SLK (human) (Q9H2G2 whole entry, looked up): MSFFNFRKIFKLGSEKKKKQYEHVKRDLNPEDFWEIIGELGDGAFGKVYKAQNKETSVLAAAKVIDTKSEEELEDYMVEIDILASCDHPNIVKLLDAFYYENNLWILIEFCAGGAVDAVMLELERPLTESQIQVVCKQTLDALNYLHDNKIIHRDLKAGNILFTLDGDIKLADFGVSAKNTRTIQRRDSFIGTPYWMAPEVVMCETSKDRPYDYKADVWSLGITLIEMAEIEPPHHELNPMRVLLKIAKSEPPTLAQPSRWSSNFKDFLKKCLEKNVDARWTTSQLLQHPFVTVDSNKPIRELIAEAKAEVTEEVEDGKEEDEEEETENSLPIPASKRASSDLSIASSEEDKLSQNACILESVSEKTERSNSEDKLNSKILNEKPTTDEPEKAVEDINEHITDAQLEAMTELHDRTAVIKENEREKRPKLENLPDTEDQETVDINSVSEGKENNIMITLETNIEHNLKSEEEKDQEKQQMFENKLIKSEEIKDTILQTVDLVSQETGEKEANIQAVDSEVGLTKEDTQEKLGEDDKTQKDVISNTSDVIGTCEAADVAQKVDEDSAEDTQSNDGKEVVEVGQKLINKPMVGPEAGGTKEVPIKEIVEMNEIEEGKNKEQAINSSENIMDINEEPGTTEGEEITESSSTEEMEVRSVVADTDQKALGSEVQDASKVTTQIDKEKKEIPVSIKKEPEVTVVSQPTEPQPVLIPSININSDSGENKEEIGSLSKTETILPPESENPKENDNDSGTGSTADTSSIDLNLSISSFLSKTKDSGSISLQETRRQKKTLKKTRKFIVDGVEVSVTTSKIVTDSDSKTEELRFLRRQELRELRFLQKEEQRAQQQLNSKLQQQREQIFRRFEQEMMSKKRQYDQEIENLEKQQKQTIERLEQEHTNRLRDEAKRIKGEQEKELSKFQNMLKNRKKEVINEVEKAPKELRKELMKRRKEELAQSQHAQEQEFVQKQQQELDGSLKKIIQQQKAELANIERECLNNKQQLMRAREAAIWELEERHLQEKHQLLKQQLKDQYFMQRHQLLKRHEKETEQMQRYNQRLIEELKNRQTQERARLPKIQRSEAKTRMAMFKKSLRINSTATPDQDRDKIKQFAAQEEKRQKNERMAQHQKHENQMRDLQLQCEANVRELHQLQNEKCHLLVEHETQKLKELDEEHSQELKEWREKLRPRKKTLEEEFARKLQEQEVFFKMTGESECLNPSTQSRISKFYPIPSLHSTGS
Sequence of PDPK1 (human) (O15530 whole entry, looked up): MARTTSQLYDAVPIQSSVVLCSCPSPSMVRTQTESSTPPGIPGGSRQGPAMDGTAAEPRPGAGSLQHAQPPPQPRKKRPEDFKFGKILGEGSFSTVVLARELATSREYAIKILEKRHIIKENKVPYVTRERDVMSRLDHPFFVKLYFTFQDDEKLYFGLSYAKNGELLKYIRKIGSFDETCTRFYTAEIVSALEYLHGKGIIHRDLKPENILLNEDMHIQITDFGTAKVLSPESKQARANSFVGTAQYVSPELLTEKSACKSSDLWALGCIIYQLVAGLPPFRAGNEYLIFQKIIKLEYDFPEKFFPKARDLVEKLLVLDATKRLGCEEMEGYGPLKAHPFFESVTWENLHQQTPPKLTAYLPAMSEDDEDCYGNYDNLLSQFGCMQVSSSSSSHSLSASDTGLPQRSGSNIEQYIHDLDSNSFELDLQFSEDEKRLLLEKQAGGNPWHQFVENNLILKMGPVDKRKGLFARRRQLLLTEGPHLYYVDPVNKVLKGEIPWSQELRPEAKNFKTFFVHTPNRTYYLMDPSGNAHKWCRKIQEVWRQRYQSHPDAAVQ

Row | kinase still bound, per cent of control (RAF1 (human)) | kinase still bound, per cent of control (SLK (human)) | kinase still bound, per cent of control (AKT1 (human)) | kinase still bound, per cent of control (MAP2K3 (human)) | kinase still bound, per cent of control (MAP2K6 (human)) | kinase still bound, per cent of control (AKT3 (human)) | kinase still bound, per cent of control (STK25 (human)) | kinase still bound, per cent of control (MAPK11 (human)) | kinase still bound, per cent of control (EPHA1 (human)) | kinase still bound, per cent of control (PDPK1 (human)) | kinase still bound, per cent of control (PHKG2 (human)) | kinase still bound, per cent of control (PIK3CA (human)) | kinase still bound, per cent of control (RPS6KA5 KD2 (human)) | kinase still bound, per cent of control (RPS6KA3 KD1 (human)) | kinase still bound, per cent of control (CDC42BPB (human)) | kinase still bound, per cent of control (PRKCQ (human)) | kinase still bound, per cent of control (CDK11B (human)) | kinase still bound, per cent of control (DYRK1B (human)) | kinase still bound, per cent of control (MAPK8 (human)) | kinase still bound, per cent of control (MAPK14 (human)) | Structure (SMILES) | other results
1 | 100% | 100% | 100% | 100% | 100% | 100% | 100% | 100% | 100% | 100% | 100% | 100% | 100% | 100% | 100% | 100% | 100% | 100% | 100% | 100% | CCOc1cc(N2CCC(O)CC2)ccc1Nc1ncc2c(n1)N(C)c1ccccc1C(=O)N2C | kinase still bound, per cent of control (ULK3 (human)): 100%; kinase still bound, per cent of control (MAP3K1 (human)): 100%; kinase still bound, per cent of control (GRK1 (human)): 100%; kinase still bound, per cent of control (EPHB6 (human)): 100%; kinase still bound, per cent of control (WEE2 (human)): 100%; kinase still bound, per cent of control (CDK15 (human)): 100%; kinase still bound, per cent of control (SRPK3 (human)): 100%; kinase still bound, per cent of control (MST1R (human)): 100%; kinase still bound, per cent of control (PIK3C2G (human)): 100%; kinase still bound, per cent of control (OXSR1 (human)): 100%; kinase still bound, per cent of control (PKN1 (human)): 100%; kinase still bound, per cent of control (SRPK1 (human)): 100%; kinase still bound, per cent of control (PRKX (human)): 100%; kinase still bound, per cent of control [1]: 100%; kinase still bound, per cent of control (ACVR1B (human)): 100%; kinase still bound, per cent of control (RIPK2 (human)): 100%; kinase still bound, per cent of control (MUSK (human)): 100%; kinase still bound, per cent of control (MAPK15 (human)): 100%
2 | 100% | 31% | 100% | 100% | 100% | 100% | 100% | 100% | 100% | 100% | 11% | 100% | 100% | 100% | 100% | 100% | 100% | 100% | 100% | 100% | COc1cc(C)c(Sc2cnc(NC(=O)c3ccc(CNC(C)C(C)C)cc3)s2)cc1C(=O)N1CCN(C(C)=O)CC1 (centres undefined) | kinase still bound, per cent of control (ULK3 (human)): 100%; kinase still bound, per cent of control (WEE2 (human)): 3.6%; kinase still bound, per cent of control (CDK15 (human)): 100%; kinase still bound, per cent of control (SRPK3 (human)): 100%; kinase still bound, per cent of control (MST1R (human)): 100%; kinase still bound, per cent of control (PKN1 (human)): 100%; kinase still bound, per cent of control (SRPK1 (human)): 100%; kinase still bound, per cent of control (PRKX (human)): 100%; kinase still bound, per cent of control (ACVR1B (human)): 100%; kinase still bound, per cent of control (RIPK2 (human)): 100%; kinase still bound, per cent of control (MUSK (human)): 0.2%; kinase still bound, per cent of control (MAPK15 (human)): 100%
3 | 100% | 2.6% | 100% | 23% | 100% | 100% | 100% | 100% | 15% | 100% | 13% | 100% | 100% | 100% | 100% | 100% | 100% | 100% | 4.1% | 100% | COc1cc(N2CCC(C(N)=O)CC2)ccc1Nc1nc(N)c(Cl)c(Nc2ccccc2S(=O)(=O)C(C)C)n1 | kinase still bound, per cent of control (ULK3 (human)): 100%; kinase still bound, per cent of control (WEE2 (human)): 100%; kinase still bound, per cent of control (CDK15 (human)): 100%; kinase still bound, per cent of control (SRPK3 (human)): 100%; kinase still bound, per cent of control (MST1R (human)): 100%; kinase still bound, per cent of control (PKN1 (human)): 100%; kinase still bound, per cent of control (SRPK1 (human)): 100%; kinase still bound, per cent of control (PRKX (human)): 100%; kinase still bound, per cent of control (ACVR1B (human)): 100%; kinase still bound, per cent of control (RIPK2 (human)): 100%; kinase still bound, per cent of control (MUSK (human)): 100%; kinase still bound, per cent of control (MAPK15 (human)): 100%
4 | 23% | 0.15% | 100% | 100% | 100% | 100% | 100% | 1.9% | 0.75% | 100% | 100% | 100% | 100% | 100% | 100% | 100% | 8.3% | 100% | 100% | 14% | COc1ccc(N(C(=O)Oc2cc(C(=O)Nc3cccc(C(F)(F)F)c3)ccc2C)c2ccnc(Nc3ccc(N4CCN(C)CC4)cc3)n2)c(OC)c1 | kinase still bound, per cent of control (PKN1 (human)): 100%; kinase still bound, per cent of control (SRPK1 (human)): 100%; kinase still bound, per cent of control (PRKX (human)): 100%; kinase still bound, per cent of control (ACVR1B (human)): 100%; kinase still bound, per cent of control (RIPK2 (human)): 2.3%; kinase still bound, per cent of control (MUSK (human)): 20%; kinase still bound, per cent of control (MAPK15 (human)): 100%
